Source: ChEMBL document CHEMBL1201862, “PubChem BioAssay data set” (2004)
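These data come from cells grown in 96-well plates and exposed to compound for 48 hours at five concentrations. GI50 is the concentration that inhibits growth by half.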 The source made the active and inactive calls. No stated cut-off is given here; in the data, active = GI50 up to about 1.1 µM and inactive = higher.

What was measured:
Assay in all cases: NCI-60 cell line screen, 48 h
MDA-N = test system: MDA-N
SF-268 = test system: SF-268
DMS-273 = test system: DMS-273
MDA-MB-435 = test system: MDA-MB-435
MDA-MB-231 = test system: MDA-MB-231
OVCAR-5 = test system: OVCAR-5
SK-MEL-28 = test system: SK-MEL-28
DLD-1 = test system: DLD-1
M14 = test system: M14
NCI-H226 = test system: NCI-H226
XF498 = test system: XF498
Hs-578T = test system: Hs-578T
786-0 = test system: 786-0
SNB-19 = test system: SNB-19
RPMI-8226 = test system: RPMI-8226
SR = test system: SR
NCI-H23 = test system: NCI-H23
ACHN = test system: ACHN
BT-549 = test system: BT-549
TK-10 = test system: TK-10
A498 = test system: A498
SF-539 = test system: SF-539
NCI-H522 = test system: NCI-H522
T47D = test system: T47D
PC-3 = test system: PC-3
DU-145 = test system: DU-145
HCC 2998 = test system: HCC 2998
NCI-H460 = test system: NCI-H460
HOP-92 = test system: HOP-92
LOX IMVI = test system: LOX IMVI
SW-620 = test system: SW-620
UO-31 = test system: UO-31
NCI/ADR-RES = test system: NCI/ADR-RES
HT-29 = test system: HT-29
CCRF-CEM = test system: CCRF-CEM
Malme-3M = test system: Malme-3M
IGROV-1 = test system: IGROV-1
OVCAR-8 = test system: OVCAR-8
OVCAR-3 = test system: OVCAR-3
SN12C = test system: SN12C
HCT-116 = test system: HCT-116
HL-60 = test system: HL-60
EKVX = test system: EKVX
KM12 = test system: KM12
K562 = test system: K562
COLO 205 = test system: COLO 205
HCT-15 = test system: HCT-15
MOLT-4 = test system: MOLT-4
SK-MEL-5 = test system: SK-MEL-5
SNB-75 = test system: SNB-75
CAKI-1 = test system: CAKI-1
MCF7 = test system: MCF7
SK-OV-3 = test system: SK-OV-3
RXF 393 = test system: RXF 393
A549 = test system: A549
UACC-257 = test system: UACC-257
HOP-62 = test system: HOP-62
OVCAR-4 = test system: OVCAR-4
SK-MEL-2 = test system: SK-MEL-2
U-251 = test system: U-251
SF-295 = test system: SF-295
UACC-62 = test system: UACC-62

CCC/C=C/C=C/C(=O)OC1/C(=C/C(=O)OC)CC2CC(C(C)O)OC(=O)CC(O)CC3CC(OC(C)=O)C(C)(C)C(O)(CC4C/C(=C/C(=O)OC)CC(/C=C/C(C)(C)C1(O)O2)O4)O3 (centres undefined)
GI50 (MDA-N): 7.53 µM (inactive)
GI50 (SF-268): 6.95 µM (inactive)
GI50 (DMS-273): 10.6 µM (inactive)
GI50 (MDA-MB-435): 8.47 µM (inactive)
GI50 (MDA-MB-231): 6.22 µM (inactive)
GI50 (OVCAR-5): > 12.5 µM (inactive)
GI50 (SK-MEL-28): 9.98 µM (inactive)
GI50 (DLD-1): > 10.9 µM (inactive)
GI50 (M14): > 11 µM (inactive)
GI50 (NCI-H226): > 12.5 µM (inactive)
GI50 (XF498): 3.62 µM (inactive)
GI50 (Hs-578T): 6.07 µM (inactive)
GI50 (786-0): 6.25 µM (inactive)
GI50 (SNB-19): > 12.5 µM (inactive)
GI50 (RPMI-8226): 9.98 µM (inactive)
GI50 (SR): > 12.5 µM (inactive)
GI50 (NCI-H23): 9.89 µM (inactive)
GI50 (ACHN): 3.34 µM (inactive)
GI50 (BT-549): 8.57 µM (inactive)
GI50 (TK-10): > 12.5 µM (inactive)
GI50 (A498): 4.18 µM (inactive)
GI50 (SF-539): > 12.5 µM (inactive)
GI50 (NCI-H522): > 12.5 µM (inactive)
GI50 (T47D): 7.01 µM (inactive)
GI50 (PC-3): 5.32 µM (inactive)
GI50 (DU-145): > 12.5 µM (inactive)

COC(=O)C#Cc1ccc([N+](=O)[O-])cc1
GI50 (HCC 2998): 1.76 µM (inactive)
GI50 (NCI-H460): 13.1 µM (inactive)
GI50 (HOP-92): 2.05 µM (inactive)
GI50 (LOX IMVI): 0.995 µM (active)
GI50 (MDA-N): 2.54 µM (inactive)
GI50 (SF-268): 4.16 µM (inactive)
GI50 (SW-620): 1.19 µM (inactive)
GI50 (UO-31): 1.42 µM (inactive)
GI50 (NCI/ADR-RES): 2.87 µM (inactive)
GI50 (HT-29): 1.6 µM (inactive)
GI50 (CCRF-CEM): 0.532 µM (active)
GI50 (MDA-MB-435): 2.18 µM (inactive)
GI50 (MDA-MB-231): 2.09 µM (inactive)
GI50 (OVCAR-5): 2.16 µM (inactive)
GI50 (Malme-3M): 2.27 µM (inactive)
GI50 (IGROV-1): 1.81 µM (inactive)
GI50 (OVCAR-8): 2.55 µM (inactive)
GI50 (SK-MEL-28): 1.96 µM (inactive)
GI50 (OVCAR-3): 1.59 µM (inactive)
GI50 (SN12C): 1.67 µM (inactive)
GI50 (HCT-116): 1.15 µM (inactive)
GI50 (HL-60): 1.77 µM (inactive)
GI50 (EKVX): 1.76 µM (inactive)
GI50 (M14): 2.05 µM (inactive)
GI50 (KM12): 1.8 µM (inactive)
GI50 (NCI-H226): 2.47 µM (inactive)
GI50 (K562): 2.47 µM (inactive)
GI50 (COLO 205): 1.83 µM (inactive)
GI50 (Hs-578T): 2.84 µM (inactive)
GI50 (786-0): 2.32 µM (inactive)
GI50 (SNB-19): 2.75 µM (inactive)
GI50 (RPMI-8226): 0.665 µM (active)
GI50 (HCT-15): 0.502 µM
GI50 (SR): 0.325 µM (active)
GI50 (NCI-H23): 1.62 µM (inactive)
GI50 (ACHN): 1.41 µM (inactive)
GI50 (BT-549): 1.49 µM (inactive)
GI50 (MOLT-4): 0.659 µM (active)
GI50 (SK-MEL-5): 2.4 µM (inactive)
GI50 (TK-10): 1.89 µM (inactive)
GI50 (SNB-75): 3.14 µM (inactive)
GI50 (CAKI-1): 1.38 µM (inactive)
GI50 (MCF7): 1.91 µM (inactive)
GI50 (A498): 9.91 µM (inactive)
GI50 (SF-539): 1.69 µM (inactive)
GI50 (NCI-H522): 1.75 µM (inactive)
GI50 (T47D): 1.45 µM (inactive)
GI50 (SK-OV-3): 8.32 µM (inactive)
GI50 (RXF 393): 1.9 µM (inactive)
GI50 (A549): 2.74 µM (inactive)
GI50 (UACC-257): 2.37 µM (inactive)
GI50 (HOP-62): 2.65 µM (inactive)
GI50 (OVCAR-4): 1.7 µM (inactive)
GI50 (PC-3): 3.73 µM (inactive)
GI50 (SK-MEL-2): 3.69 µM (inactive)
GI50 (U-251): 1.88 µM (inactive)
GI50 (SF-295): 4.24 µM (inactive)
GI50 (DU-145): 1.76 µM (inactive)
GI50 (UACC-62): 2.69 µM (inactive)

CC(C)(C)OC(=O)NC(Cc1c[nH]cn1)C(=O)N1CCCC1C(N)=O (centres undefined)
GI50 (HCC 2998): > 100 µM (inactive)
GI50 (NCI-H460): > 100 µM (inactive)
GI50 (HOP-92): > 100 µM (inactive)
GI50 (LOX IMVI): > 100 µM (inactive)
GI50 (MDA-N): > 100 µM (inactive)
GI50 (SF-268): > 100 µM (inactive)
GI50 (SW-620): > 100 µM (inactive)
GI50 (UO-31): > 100 µM (inactive)
GI50 (NCI/ADR-RES): > 100 µM (inactive)
GI50 (HT-29): > 100 µM (inactive)
GI50 (CCRF-CEM): > 100 µM (inactive)
GI50 (MDA-MB-435): > 100 µM (inactive)
GI50 (MDA-MB-231): > 100 µM (inactive)
GI50 (OVCAR-5): > 100 µM (inactive)
GI50 (Malme-3M): > 100 µM (inactive)
GI50 (IGROV-1): > 100 µM (inactive)
GI50 (OVCAR-8): > 100 µM (inactive)
GI50 (SK-MEL-28): > 100 µM (inactive)
GI50 (OVCAR-3): > 100 µM (inactive)
GI50 (SN12C): > 100 µM (inactive)
GI50 (HCT-116): > 100 µM (inactive)
GI50 (HL-60): > 100 µM (inactive)
GI50 (EKVX): > 100 µM (inactive)
GI50 (M14): > 100 µM (inactive)
GI50 (KM12): > 100 µM (inactive)
GI50 (NCI-H226): 33.1 µM (inactive)
GI50 (K562): > 100 µM (inactive)
GI50 (COLO 205): > 100 µM (inactive)
GI50 (Hs-578T): > 100 µM (inactive)
GI50 (786-0): > 100 µM (inactive)
GI50 (SNB-19): > 100 µM (inactive)
GI50 (RPMI-8226): > 100 µM (inactive)
GI50 (HCT-15): > 100 µM
GI50 (SR): > 100 µM (inactive)
GI50 (NCI-H23): > 100 µM (inactive)
GI50 (ACHN): > 100 µM (inactive)
GI50 (BT-549): > 100 µM (inactive)
GI50 (MOLT-4): > 100 µM (inactive)
GI50 (SK-MEL-5): > 100 µM (inactive)
GI50 (TK-10): > 100 µM (inactive)
GI50 (SNB-75): > 100 µM (inactive)
GI50 (CAKI-1): > 100 µM (inactive)
GI50 (MCF7): > 100 µM (inactive)
GI50 (A498): > 100 µM (inactive)
GI50 (SF-539): > 100 µM (inactive)
GI50 (NCI-H522): > 100 µM (inactive)
GI50 (T47D): > 100 µM (inactive)
GI50 (SK-OV-3): > 100 µM (inactive)
GI50 (RXF 393): 2.17 µM (inactive)
GI50 (A549): > 100 µM (inactive)
GI50 (UACC-257): > 100 µM (inactive)
GI50 (HOP-62): > 100 µM (inactive)
GI50 (OVCAR-4): > 100 µM (inactive)
GI50 (PC-3): > 100 µM (inactive)
GI50 (SK-MEL-2): > 100 µM (inactive)
GI50 (U-251): > 100 µM (inactive)
GI50 (SF-295): > 100 µM (inactive)
GI50 (DU-145): > 100 µM (inactive)
GI50 (UACC-62): > 100 µM (inactive)
